Reference: US12024506B2, “Compounds” (Oxford University Innovation Limited, priority 2018, dated 2024)

Biological target: T1, GST-human KRas166 (G12V) GPPNHP (Homo sapiens, UniProt P01116, G12V)
T1 construct: made in house; host or cells: E. coli C41(DE3)
Test: KRas small-molecule screening by SPR (Biacore T200)
Format: binding
Settings: compound 100 uM, 5% DMSO buffer; immobilised GST-KRas166 (G12V) GPPNHP
Description: For SPR assays pGEX-KRAS(G12V) plasmid was transformed into E. coli C41(DE3). Bacterial cells were cultured at 37° C. to an OD600 of 0.6 and induced with IPTG (final 0.1 mM) at 18° C. over night. The GST fusion proteins were extracted from bacteria pellets after cell disruption in 140 mM NaCl, 2.7 mM KCl, 10 mM NaH2PO4, 1.8 mM KH2PO4, 1 mM EDTA, 2 mM MgCl2 pH 7.4 and purified by glutathione-sepharose column chromatography (GE Healthcare), eluting with 50 mM Tris-HCl pH8.0, 10 mM reduced glutathione, 1 mM DTT, 2 mM MgCl2. The eluted proteins were dialysed against 50 mM Tris-HCl pH8.0, 1 mM DTT, 2 mM MgCl2 and concentrated to 10 mg/ml using a Biomax-30 ULTRAFREE-15 centrifugal filter device (Millipore). Purified KRAS protein was loaded with GPPNHP as described elsewhere (Pacold et al., 2000). Loaded protein was then purified by gel filtration on a HiLoad Superdex-75 HR column (GE Healthcare) in 1×PBS pH7.4, 5 mM MgCl2 and concentrated for storage.
Protocol for KRas Small-Molecule Screening and Affinity Measurements by SPR
To a previously immobilized CM5 chip (GE Healthcare BR-1005-30) with anti GST antibody via amine coupling method, GST in channel 1 and GST-human KRas166 (G12V) GPPNHP in channel 2 were immobilised. GST was immobilised between 2,000 and 5,000 Response units. KRAS166 (G12V) was immobilized between 10,000 to 15,000 Response Units.
In a 96 well plate, compounds were diluted in […], 5 mM MgCl2 and 5% DMSO Buffer to a final concentration of 100 uM. DCAl was used as positive control. Experiment also included a solvent correction curve for 5% DMSO. Screening and evaluation of the protein immobilization and the compounds screening was done accordingly to the BIACORE T200 control and evaluation software.
Calculations for how many response units are required for a 1:1 ratio of compound/protein interaction are shown below. • Protein immobilisation: 10,000 RU; average fragment 300 Da in size. • Rmax=(MWA/MWL)×RL×SM • MWA is the molecular weight of the analyte in Da • MWL is the molecular weight of the ligand in Da • RL is the immobilization level in RU • SM is the molar stoichiometry (assume 1:1) • Rmax=300/47,500×10,000×1 • Rmax=63 RU. Cell Viability Assay protocols Assay 1

| SMILES | SPR Response Units [Response Units] |
| --- | --- |
| COc1cccc(-c2cccc3c2OCCO3)n1 [Example 1, 2-(2,3-Dihydro-benzo[1,4]dioxin-5-yl)-6-methoxy-pyridine] | 10 |
| COc1cccc(-c2cccc3c2OC(CO)CO3)n1 (stereo not drawn) [Example 2, [8-(6-Methoxy-pyridin-2-yl)-2,3-dihydro-benzo[1,4]dioxin-2-yl]-methanol] | 17 |
| COc1cc(N)cc(-c2cccc3c2OCCO3)n1 [Example 3, 2-(2,3-Dihydro-benzo[1,4]dioxin-5-yl)-6-methoxy-pyridin-4-ylamine] | 16 |
| COc1cc(NC(=O)C2CCN(C)CC2)cc(-c2cccc3c2OCCO3)n1 [Example 4, 1-Methyl-piperidine-4-carboxylic acid [2-(2,3-dihydro-benzo[1,4]dioxin-5-yl)-6-methoxy-pyridin-4-yl]-amide] | 37 |
| COc1cc(NC(=O)[C@@H]2CCNC2)cc(-c2cccc3c2OCCO3)n1 [Example 17, (R)-Pyrrolidine-3-carboxylic acid [2-(2,3-dihydro-benzo[1,4]dioxin-5-yl)-6-methoxy-pyridin-4-yl]-amide] | 84 |
| COc1cc(NC(=O)[C@H]2CNCCO2)cc(-c2cccc3c2OCCO3)n1 [Example 18, (R)-Morpholine-2-carboxylic acid [2-(2,3-dihydro-benzo[1,4]dioxin-5-yl)-6-methoxy-pyridin-4-yl]-amide] | 71 |
| COc1cc(NC(=O)C2CCNCC2)cc(-c2cccc3c2OCCO3)n1 [Example 19, Piperidine-4-carboxylic acid [2-(2,3-dihydro-benzo[1,4]dioxin-5-yl)-6-methoxy-pyridin-4-yl]-amide] | 100 |
| COc1cc(NC(=O)[C@@H]2CNCCO2)cc(-c2cccc3c2OCCO3)n1 [Example 20, (S)-Morpholine-2-carboxylic acid [2-(2,3-dihydro-benzo[1,4]dioxin-5-yl)-6-methoxy-pyridin-4-yl]-amide] | 80 |
| COc1cc(NC(=O)[C@H]2CC[C@@H](N)CC2)cc(-c2cccc3c2OCCO3)n1 [Example 21, 4-Amino-cyclohexanecarboxylic acid [2-(2,3-dihydro-benzo[1,4]dioxin-5-yl)-6-methoxy-pyridin-4-yl]-amide] | 66 |
| COc1cc(NC(=O)N(C)C2CCN(C)CC2)cc(-c2cccc3c2OCCO3)n1 [Example 22, 3-[2-(2,3-Dihydro-benzo[1,4]dioxin-5-yl)-6-methoxy-pyridin-4-yl]-1-methyl-1-(1-methyl-piperidin-4-yl)-urea] | 55 |
| COc1cc(NC(=O)N2CCN(C)CC2)cc(-c2cccc3c2OCCO3)n1 [Example 23, 4-Methyl-piperazine-1-carboxylic acid [2-(2,3-dihydro-benzo[1,4]dioxin-5-yl)-6-methoxy-pyridin-4-yl]-amide] | 58 |
| COc1cccc(-c2cccc3c2OC(CNCC2CCN(C)CC2)CO3)n1 (stereo not drawn) [Example 27, [8-(6-Methoxy-pyridin-2-yl)-2,3-dihydro-benzo[1,4]dioxin-2-ylmethyl]-(1-methyl-piperidin-4-ylmethyl)-amine] | 58 |
| COc1cccc(-c2cccc3c2OC(CNCc2cccnc2)CO3)n1 (stereo not drawn) [Example 28, [8-(6-Methoxy-pyridin-2-yl)-2,3-dihydro-benzo[1,4]dioxin-2-ylmethyl]-pyridin-3-ylmethyl-amine] | 28 |
| COc1cccc(-c2cccc3c2OC(CNCC2CCOCC2)CO3)n1 (stereo not drawn) [Example 29, [8-(6-Methoxy-pyridin-2-yl)-2,3-dihydro-benzo[1,4]dioxin-2-ylmethyl]-(tetrahydro-pyran-4-ylmethyl)-amine] | 14 |

The next lines start with the values.

| SPR Response Units [Response Units] | SMILES |
| --- | --- |
| 26 | COc1cccc(-c2cccc3c2OC(CNCC2CCN(C(=O)c4cnccn4)CC2)CO3)n1 (stereo not drawn) [Example 29a, [4-({[8-(6-Methoxy-pyridin-2-yl)-2,3-dihydro-benzo[1,4]dioxin-2-ylmethyl]-amino}-methyl)-piperidin-1-yl]-pyrazin-2-yl-methanone] |
| 42 | COc1cccc(-c2cccc3c2OC(CNCC2CCN(C(=O)C4CCOCC4)CC2)CO3)n1 (stereo not drawn) [Example 30, [4-({[8-(6-Methoxy-pyridin-2-yl)-2,3-dihydro-benzo[1,4]dioxin-2-ylmethyl]-amino}-methyl)-piperidin-1-yl]-(tetrahydro-pyran-4-yl)-methanone] |
| 37 | COc1cccc(-c2cccc3c2OC(CN2C(=O)NC4(CCN(C)CC4)C2=O)CO3)n1 (stereo not drawn) [Example 34, 3-[8-(6-Methoxy-pyridin-2-yl)-2,3-dihydro-benzo[1,4]dioxin-2-ylmethyl]-8-methyl-1,3,8-triaza-spiro[4.5]decane-2,4-dione] |
| 33 | COc1cccc(-c2cccc3c2OC(CN2C(=O)NC(C)(C)C2=O)CO3)n1 (stereo not drawn) [Example 35, 3-[8-(6-Methoxy-pyridin-2-yl)-2,3-dihydro-benzo[1,4]dioxin-2-ylmethyl]-5,5-dimethyl-imidazolidine-2,4-dione] |
| 58 | COc1ccc(N2CC(=O)N(CC3COc4cccc(-c5cccc(OC)n5)c4O3)C2=O)cn1 (stereo not drawn) [Example 36, 1-(6-Methoxy-pyridin-3-yl)-3-[8-(6-methoxy-pyridin-2-yl)-2,3-dihydro-benzo[1,4]dioxin-2-ylmethyl]-imidazolidine-2,4-dione] |
| 31 | COc1cccc(-c2cccc3c2OC(CN2C(=O)CN(C4CCNCC4)C2=O)CO3)n1 (stereo not drawn) [Example 37, 3-[8-(6-Methoxy-pyridin-2-yl)-2,3-dihydro-benzo[1,4]dioxin-2-ylmethyl]-1-piperidin-4-yl-imidazolidine-2,4-dione] |
| 62 | CN1CCN(Cc2ccc(C(=O)NCC3COc4cccc(-c5ccn[nH]5)c4O3)o2)CC1 (stereo not drawn) [Example 42, 5-(4-Methyl-piperazin-1-ylmethyl)-furan-2-carboxylic acid [8-(2H-pyrazol-3-yl)-2,3-dihydro-benzo[1,4]dioxin-2-ylmethyl]-amide] |
| 42 | COc1cccc(-c2cccc3c2O[C@@H](CNC(=O)c2ccc(CN4CCN(C)CC4)o2)CO3)n1 [Example 44, 5-(4-Methyl-piperazin-1-ylmethyl)-furan-2-carboxylic acid [(S)-8-(6-methoxy-pyridin-2-yl)-2,3-dihydro-benzo[1,4]dioxin-2-ylmethyl]-amide] |
| 12 | COc1cccc(-c2cccc3c2OC(CNC(=O)C2CCOCC2)CO3)n1 (stereo not drawn) [Example 45, Tetrahydro-pyran-4-carboxylic acid [8-(6-methoxy-pyridin-2-yl)-2,3-dihydro-benzo[1,4]dioxin-2-ylmethyl]-amide] |
| 90 | COc1ccc(-c2cccc3c2OC(CNC(=O)c2ccc(CN4CCN(C)CC4)o2)CO3)cn1 (stereo not drawn) [Example 45a, 5-(4-Methyl-piperazin-1-ylmethyl)-furan-2-carboxylic acid [8-(6-methoxy-pyridin-3-yl)-2,3-dihydro-benzo[1,4]dioxin-2-ylmethyl]-amide] |
| 16 | COc1cccc(-c2cccc3c2OC(CNC(=O)CCN(C)C)CO3)n1 (stereo not drawn) [Example 47, 3-Dimethylamino-N-[8-(6-methoxy-pyridin-2-yl)-2,3-dihydro-benzo[1,4]dioxin-2-ylmethyl]-propionamide] |
| 54 | COc1cccc(-c2cccc3c2O[C@H](CNC(=O)C2CCN(Cc4cnccn4)CC2)CO3)n1 [Example 48, 1-Pyrazin-2-ylmethyl-piperidine-4-carboxylic acid [(R)-8-(6-methoxy-pyridin-2-yl)-2,3-dihydro-benzo[1,4]dioxin-2-ylmethyl]-amide] |
| 14 | COc1cccc(-c2cccc3c2OC(CNC(=O)C2CCN(C)CC2)CO3)n1 (stereo not drawn) [Example 50, 1-Methyl-piperidine-4-carboxylic acid [8-(6-methoxy-pyridin-2-yl)-2,3-dihydro-benzo[1,4]dioxin-2-ylmethyl]-amide] |
